Test results from patent US6525001B1, “Substituted pyrimidine and pyridine herbicides” (Mid-American Commercialization Corporation, priority 1997, dated 2003).

Experiments:
Format in all cases: in vivo
[1] = test system: ivyleaf morningglory (Ipomoea hederacea); test: Test C; parameters: key: 0 was no effect; 100 was complete control
[2] = test system: sandbur (Cenchrus echinatus); test: Test E pre-/postemergence/post directed; parameters: key: 0 is no injury; 100 is complete control
How it was run: (§1)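 Injury scored visually on a 0–100 scale (100 = complete control) 13 to 21 days after treatment. Test chemicals, formulated with surfactant in non-phytotoxic solvent, were applied to soil within one day of planting, to plants at two to four leaves (three to twenty cm), or as directed spray at plant base.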

[3] = test system: purple nutsedge (Cyperus rotundus); test: Test E pre-/postemergence/post directed; parameters: key: 0 is no injury; 100 is complete control
How it was run: as §1

[4] = test system: purple nutsedge (Cyperus rotundus); test: Test C; parameters: key: 0 was no effect; 100 was complete control
[5] = test system: hairy beggarticks (Bidens pilosa); test: Test C
[6] = test system: common groundsel (Senecio vulgaris); test: Test E pre-/postemergence/post directed
How it was run: as §1

[7] = test system: surinam grass (Brachiaria decumbens); test: Test E pre-/postemergence/post directed
How it was run: as §1

[8] = test system: johnson grass (Sorghum halepense); test: Test E pre-/postemergence/post directed
How it was run: as §1

[9] = test system: alexandergrass (Brachiaria plantaginea); test: Test E pre-/postemergence/post directed
How it was run: as §1

[10] = test system: pitted morningglory (Ipomoea lacunosa); test: Test E pre-/postemergence/post directed
How it was run: as §1

[11] = test system: wild poinsettia (Euphorbia heterophylla); test: Test C; parameters: key: 0 was no effect; 100 was complete control
[12] = test system: surinam grass (Brachiaria decumbens); test: Test C
[13] = test system: corn (Zea mays); test: Test C; parameters: key: 0 was no effect; 100 was complete control
[14] = test system: field bindweed (Convolvulus arvensis); test: Test C; parameters: key: 0 was no effect; 100 was complete control

With Cc1cnc(-c2ccc(C(F)(F)F)cc2)nc1Cn1ccc(C(F)(F)F)n1 [compound 9] the “Plant response rating, I. morningglory” value ([1]; POSTEMERGENCE, Rate 35 g/ha) was 50, the “Plant response rating, I. morningglory” value ([1]; POSTEMERGENCE, Rate 70 g/ha) was 60 and the “Plant response rating, I. morningglory” value ([1]; POSTEMERGENCE, Rate 140 g/ha) was 100. For the same molecule, the “Plant response rating, I. morningglory” value ([1]; PREEMERGENCE, Rate 35 g/ha) was 20, the “Plant response rating, I. morningglory” value ([1]; PREEMERGENCE, Rate 70 g/ha) was 50 and the “Plant response rating, I. morningglory” value ([1]; PREEMERGENCE, Rate 140 g/ha) was 50. For the same molecule, the “Plant response rating, Sandbur” value ([2]; POSTEMERGENCE, Rate 125 g/ha) was 0, the “Plant response rating, Sandbur” value ([2]; POSTEMERGENCE, Rate 250 g/ha) was 0 and the “Plant response rating, Sandbur” value ([2]; PREEMERGENCE, Rate 32 g/ha) was 0. The “Plant response rating, Sandbur” value ([2]; PREEMERGENCE, Rate 64 g/ha) was 0, the “Plant response rating, Purple nutsedge” value ([3]; POSTEMERGENCE, Rate 125 g/ha) was 0 and the “Plant response rating, Purple nutsedge” value ([3]; POSTEMERGENCE, Rate 250 g/ha) was 0. The “Plant response rating, Purple nutsedge” value ([3]; PREEMERGENCE, Rate 32 g/ha) was 0, the “Plant response rating, Purple nutsedge” value ([3]; PREEMERGENCE, Rate 64 g/ha) was 0 and the “Plant response rating, Purple nutsedge” value ([3]; PREEMERGENCE, Rate 125 g/ha) was 0. The “Plant response rating, Purple nutsedge” value ([3]; PREEMERGENCE, Rate 250 g/ha) was 0, the “Plant response rating, Purple nutsedge” value ([4]; POSTEMERGENCE, Rate 35 g/ha) was 5 and the “Plant response rating, Purple nutsedge” value ([4]; POSTEMERGENCE, Rate 70 g/ha) was 5. The “Plant response rating, Purple nutsedge” value ([4]; POSTEMERGENCE, Rate 140 g/ha) was 5, the “Plant response rating, Purple nutsedge” value ([4]; PREEMERGENCE, Rate 35 g/ha) was 0 and the “Plant response rating, Purple nutsedge” value ([4]; PREEMERGENCE, Rate 70 g/ha) was 0. The “Plant response rating, Purple nutsedge” value ([4]; PREEMERGENCE, Rate 140 g/ha) was 0, the “Plant response rating, H. beggarticks” value ([5]; POSTEMERGENCE, Rate 35 g/ha) was 65 and the “Plant response rating, H. beggarticks” value ([5]; POSTEMERGENCE, Rate 70 g/ha) was 70. For the same molecule, the “Plant response rating, H. beggarticks” value ([5]; POSTEMERGENCE, Rate 140 g/ha) was 80, the “Plant response rating, H. beggarticks” value ([5]; PREEMERGENCE, Rate 35 g/ha) was 85 and the “Plant response rating, H. beggarticks” value ([5]; PREEMERGENCE, Rate 70 g/ha) was 85. The “Plant response rating, H. beggarticks” value ([5]; PREEMERGENCE, Rate 140 g/ha) was 85, the “Plant response rating, Com. groundsel” value ([6]; POSTEMERGENCE, Rate 125 g/ha) was 25 and the “Plant response rating, Com. groundsel” value ([6]; POSTEMERGENCE, Rate 250 g/ha) was 30. For the same molecule, the “Plant response rating, Com. groundsel” value ([6]; PREEMERGENCE, Rate 32 g/ha) was 98, the “Plant response rating, Surinam grass” value ([7]; POSTEMERGENCE, Rate 125 g/ha) was 10 and the “Plant response rating, Surinam grass” value ([7]; POSTEMERGENCE, Rate 250 g/ha) was 10. For the same molecule, the “Plant response rating, Surinam grass” value ([7]; PREEMERGENCE, Rate 64 g/ha) was 10, the “Plant response rating, Surinam grass” value ([7]; PREEMERGENCE, Rate 125 g/ha) was 20 and the “Plant response rating, Johnsongrass” value ([8]; POSTEMERGENCE, Rate 125 g/ha) was 85. For the same molecule, the “Plant response rating, Johnsongrass” value ([8]; POSTEMERGENCE, Rate 250 g/ha) was 85, the “Plant response rating, Johnsongrass” value ([8]; PREEMERGENCE, Rate 32 g/ha) was 55 and the “Plant response rating, Johnsongrass” value ([8]; PREEMERGENCE, Rate 64 g/ha) was 75. For the same molecule, the “Plant response rating, Johnsongrass” value ([8]; PREEMERGENCE, Rate 125 g/ha) was 85, the “Plant response rating, Johnsongrass” value ([8]; PREEMERGENCE, Rate 250 g/ha) was 90 and the “Plant response rating, Alexandergrass” value ([9]; POSTEMERGENCE, Rate 125 g/ha) was 10. For the same molecule, the “Plant response rating, Alexandergrass” value ([9]; POSTEMERGENCE, Rate 250 g/ha) was 10, the “Plant response rating, Alexandergrass” value ([9]; PREEMERGENCE, Rate 32 g/ha) was 30 and the “Plant response rating, Alexandergrass” value ([9]; PREEMERGENCE, Rate 64 g/ha) was 65. For the same molecule, the “Plant response rating, Alexandergrass” value ([9]; PREEMERGENCE, Rate 125 g/ha) was 65, the “Plant response rating, P. morninglory” value ([10]; POSTEMERGENCE, Rate 125 g/ha) was 40 and the “Plant response rating, P. morninglory” value ([10]; POSTEMERGENCE, Rate 250 g/ha) was 50. The “Plant response rating, P. morninglory” value ([10]; PREEMERGENCE, Rate 32 g/ha) was 45, the “Plant response rating, P. morninglory” value ([10]; PREEMERGENCE, Rate 64 g/ha) was 60 and the “Plant response rating, P. morninglory” value ([10]; PREEMERGENCE, Rate 125 g/ha) was 75. The “Plant response rating, Wild poinsettia” value ([11]; POSTEMERGENCE, Rate 35 g/ha) was 90, the “Plant response rating, Wild poinsettia” value ([11]; POSTEMERGENCE, Rate 70 g/ha) was 90 and the “Plant response rating, Wild poinsettia” value ([11]; POSTEMERGENCE, Rate 140 g/ha) was 100. For the same molecule, the “Plant response rating, Wild poinsettia” value ([11]; PREEMERGENCE, Rate 35 g/ha) was 10, the “Plant response rating, Wild poinsettia” value ([11]; PREEMERGENCE, Rate 70 g/ha) was 50 and the “Plant response rating, Wild poinsettia” value ([11]; PREEMERGENCE, Rate 140 g/ha) was 50. For the same molecule, the “Plant response rating, Surinam grass” value ([12]; POSTEMERGENCE, Rate 35 g/ha) was 5, the “Plant response rating, Surinam grass” value ([12]; POSTEMERGENCE, Rate 70 g/ha) was 5 and the “Plant response rating, Surinam grass” value ([12]; POSTEMERGENCE, Rate 140 g/ha) was 20. For the same molecule, the “Plant response rating, Surinam grass” value ([12]; PREEMERGENCE, Rate 35 g/ha) was 35, the “Plant response rating, Surinam grass” value ([12]; PREEMERGENCE, Rate 70 g/ha) was 80 and the “Plant response rating, Surinam grass” value ([12]; PREEMERGENCE, Rate 140 g/ha) was 90. For the same molecule, the “Plant response rating, Corn” value ([13]; POSTEMERGENCE, Rate 35 g/ha) was 10, the “Plant response rating, Corn” value ([13]; POSTEMERGENCE, Rate 70 g/ha) was 15 and the “Plant response rating, Corn” value ([13]; POSTEMERGENCE, Rate 140 g/ha) was 15. The “Plant response rating, Corn” value ([13]; PREEMERGENCE, Rate 35 g/ha) was 0, the “Plant response rating, Corn” value ([13]; PREEMERGENCE, Rate 70 g/ha) was 5 and the “Plant response rating, Corn” value ([13]; PREEMERGENCE, Rate 140 g/ha) was 10. The “Plant response rating, Field bindweed” value ([14]; POSTEMERGENCE, Rate 35 g/ha) was 60, the “Plant response rating, Field bindweed” value ([14]; POSTEMERGENCE, Rate 70 g/ha) was 70 and the “Plant response rating, Field bindweed” value ([14]; POSTEMERGENCE, Rate 140 g/ha) was 80. For the same molecule, the “Plant response rating, Field bindweed” value ([14]; PREEMERGENCE, Rate 35 g/ha) was 50, the “Plant response rating, Field bindweed” value ([14]; PREEMERGENCE, Rate 70 g/ha) was 100 and the “Plant response rating, Field bindweed” value ([14]; PREEMERGENCE, Rate 140 g/ha) was 90.
